What was measured:
[1] = cited from earlier work
[2] = Solubility of rotigotine in polymers and solvents; type: physicochemical; details: e.g. hexane, ethyl acetate and toluol

In the case of `CCCN(CCc1cccs1)[C@H]1CCc2c(O)cccc2C1` [Rotigotine, (−)-5,6,7,8-tetrahydro-6-[propyl[2-(2-thienyl)ethyl]amino]-1-naphtol], the “Solubility in hydrophobic polymers such as silicon” value [1] is given as “only feebly soluble” and the “Solubility of the crystals in solvents suitable for dissolving matrix polymers” value [2] is given as “nearly insoluble”.
